The structures appear in SMILES notation.

The target of experiment [1] is T1, Aurora kinase B (Homo sapiens, UniProt Q96GD4). As to the kind of experiment: Selectivity interaction (Panel of kinases, GPCRs, ion channels and transporters (enzymatic assay)) EUB0000266bCl AURKB.
Experiment [2] deals with T2, Serine/threonine-protein kinase 3 (Homo sapiens) (UniProt Q13188).
T2 sequence (whole entry): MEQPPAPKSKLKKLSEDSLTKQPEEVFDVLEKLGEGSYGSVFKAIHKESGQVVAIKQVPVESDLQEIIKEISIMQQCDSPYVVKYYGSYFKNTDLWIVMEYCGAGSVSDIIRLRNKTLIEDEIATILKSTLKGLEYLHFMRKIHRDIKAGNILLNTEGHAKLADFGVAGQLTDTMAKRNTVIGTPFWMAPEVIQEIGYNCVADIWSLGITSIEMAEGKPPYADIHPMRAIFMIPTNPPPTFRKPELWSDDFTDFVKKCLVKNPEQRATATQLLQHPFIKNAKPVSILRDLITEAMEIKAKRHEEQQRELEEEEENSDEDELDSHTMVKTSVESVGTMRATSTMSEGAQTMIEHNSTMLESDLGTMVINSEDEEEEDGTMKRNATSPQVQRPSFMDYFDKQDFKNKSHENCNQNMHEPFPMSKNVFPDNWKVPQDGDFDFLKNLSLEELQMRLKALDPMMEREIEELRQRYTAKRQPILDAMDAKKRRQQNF
Put plainly: Selectivity interaction (Upstate Kinase Profiler service (Millipore)) EUB0000056c STK3. As to conditions: at 1 µM.

Experiment [3] concerns the target Serine/threonine-protein kinase PLK1 (Homo sapiens, UniProt P53350). As to conditions: at 10 µM.
In experiment [4] the target is 5-hydroxytryptamine receptor 7 (Homo sapiens) (UniProt P34969). As to the kind of experiment: Selectivity interaction (GPCR panel (PDSP screen)) EUB0001079a HTR7. Particulars: at 10 µM.
Sequence of 5-hydroxytryptamine receptor 7 (Homo sapiens) (P34969 whole entry, canonical isoform): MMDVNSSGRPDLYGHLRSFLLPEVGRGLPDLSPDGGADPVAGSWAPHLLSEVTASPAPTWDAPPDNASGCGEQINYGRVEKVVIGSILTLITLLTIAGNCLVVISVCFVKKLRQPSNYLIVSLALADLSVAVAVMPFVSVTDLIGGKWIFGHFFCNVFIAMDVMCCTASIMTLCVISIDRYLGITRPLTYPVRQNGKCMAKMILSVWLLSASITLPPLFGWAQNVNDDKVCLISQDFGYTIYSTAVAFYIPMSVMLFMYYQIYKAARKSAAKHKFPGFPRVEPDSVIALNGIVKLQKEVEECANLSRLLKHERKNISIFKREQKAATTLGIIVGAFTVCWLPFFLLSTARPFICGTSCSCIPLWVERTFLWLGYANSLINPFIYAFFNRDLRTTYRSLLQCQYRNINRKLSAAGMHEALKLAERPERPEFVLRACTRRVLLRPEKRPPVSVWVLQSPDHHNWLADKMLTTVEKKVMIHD
Experiment [5] concerns the target Phosphatidylinositol 4,5-bisphosphate 3-kinase catalytic subunit beta isoform (Homo sapiens) (UniProt P42338). As to the kind of experiment: Selectivity interaction (KinomeScan (DiscoverX)) EUB0000092b PIK3CB. As to conditions: at 10 µM.
Experiment [6] deals with Phosphatidylinositol 4-phosphate 5-kinase type-1 alpha (Homo sapiens) (UniProt Q99755). As to the kind of experiment: Selectivity interaction (KinomeScan (DiscoverX)) EUB0000045b PIP5K1A.
Sequence of Phosphatidylinositol 4-phosphate 5-kinase type-1 alpha (Homo sapiens) (Q99755 whole entry): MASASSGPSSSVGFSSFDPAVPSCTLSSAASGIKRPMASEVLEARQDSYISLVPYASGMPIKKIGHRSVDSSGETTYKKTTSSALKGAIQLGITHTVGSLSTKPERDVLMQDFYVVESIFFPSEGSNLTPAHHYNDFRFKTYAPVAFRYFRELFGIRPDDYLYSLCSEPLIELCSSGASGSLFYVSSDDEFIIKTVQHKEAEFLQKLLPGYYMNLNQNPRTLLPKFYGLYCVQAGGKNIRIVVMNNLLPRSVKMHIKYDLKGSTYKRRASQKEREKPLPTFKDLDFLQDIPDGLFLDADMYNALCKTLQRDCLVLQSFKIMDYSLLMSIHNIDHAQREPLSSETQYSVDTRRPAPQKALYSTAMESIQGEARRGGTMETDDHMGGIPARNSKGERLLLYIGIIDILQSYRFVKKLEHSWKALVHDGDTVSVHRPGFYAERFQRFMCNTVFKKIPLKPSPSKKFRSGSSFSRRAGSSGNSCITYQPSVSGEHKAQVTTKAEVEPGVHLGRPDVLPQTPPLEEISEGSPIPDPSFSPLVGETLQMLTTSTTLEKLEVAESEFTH
Experiment [7] has as its target T3, Ephrin type-A receptor 6 (Homo sapiens) (UniProt Q9UF33).
T3 sequence (whole entry): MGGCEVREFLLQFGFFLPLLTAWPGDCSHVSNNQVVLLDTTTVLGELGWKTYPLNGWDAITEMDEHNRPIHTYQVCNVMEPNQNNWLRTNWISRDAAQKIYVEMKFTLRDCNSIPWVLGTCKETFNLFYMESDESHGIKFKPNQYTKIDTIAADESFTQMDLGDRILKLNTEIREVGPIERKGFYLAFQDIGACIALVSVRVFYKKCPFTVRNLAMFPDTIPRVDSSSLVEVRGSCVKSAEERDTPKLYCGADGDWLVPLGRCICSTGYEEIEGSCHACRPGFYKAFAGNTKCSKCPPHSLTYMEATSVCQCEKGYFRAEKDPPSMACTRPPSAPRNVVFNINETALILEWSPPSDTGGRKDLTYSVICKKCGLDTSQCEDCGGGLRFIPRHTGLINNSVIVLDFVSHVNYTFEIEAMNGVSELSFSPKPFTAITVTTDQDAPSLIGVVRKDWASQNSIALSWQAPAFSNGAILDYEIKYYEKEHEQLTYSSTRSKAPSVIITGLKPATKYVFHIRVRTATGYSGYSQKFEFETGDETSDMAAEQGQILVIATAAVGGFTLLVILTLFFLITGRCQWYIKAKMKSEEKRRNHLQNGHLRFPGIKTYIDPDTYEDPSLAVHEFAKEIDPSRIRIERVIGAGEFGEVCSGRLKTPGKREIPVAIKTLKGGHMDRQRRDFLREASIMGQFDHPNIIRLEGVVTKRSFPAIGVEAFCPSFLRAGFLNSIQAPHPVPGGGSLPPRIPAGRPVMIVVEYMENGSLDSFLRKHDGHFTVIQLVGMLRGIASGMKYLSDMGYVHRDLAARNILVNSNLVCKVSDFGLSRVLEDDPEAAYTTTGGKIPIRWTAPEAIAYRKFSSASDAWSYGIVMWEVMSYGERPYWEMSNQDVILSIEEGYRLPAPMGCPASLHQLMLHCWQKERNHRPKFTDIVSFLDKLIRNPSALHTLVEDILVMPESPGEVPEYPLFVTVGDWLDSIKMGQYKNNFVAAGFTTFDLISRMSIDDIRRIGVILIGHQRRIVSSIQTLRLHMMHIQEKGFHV
As to the kind of experiment: Selectivity interaction (KinomeScan (DiscoverX)) EUB0000666a EPHA6. As to conditions: at 10 µM.

Experiment [8] deals with T1, Aurora kinase B. As to the kind of experiment: Selectivity interaction (ActivX KiNativ screen (kinase selectivity in THP-1 cell lysates)) EUB0000639a AURKB. In kind it is subcellular. Particulars: lysate, at 0.2 µM.
Experiment [9] has as its target T4, Scaffold protein ILK (Homo sapiens) (UniProt Q13418).
T4 sequence (whole entry): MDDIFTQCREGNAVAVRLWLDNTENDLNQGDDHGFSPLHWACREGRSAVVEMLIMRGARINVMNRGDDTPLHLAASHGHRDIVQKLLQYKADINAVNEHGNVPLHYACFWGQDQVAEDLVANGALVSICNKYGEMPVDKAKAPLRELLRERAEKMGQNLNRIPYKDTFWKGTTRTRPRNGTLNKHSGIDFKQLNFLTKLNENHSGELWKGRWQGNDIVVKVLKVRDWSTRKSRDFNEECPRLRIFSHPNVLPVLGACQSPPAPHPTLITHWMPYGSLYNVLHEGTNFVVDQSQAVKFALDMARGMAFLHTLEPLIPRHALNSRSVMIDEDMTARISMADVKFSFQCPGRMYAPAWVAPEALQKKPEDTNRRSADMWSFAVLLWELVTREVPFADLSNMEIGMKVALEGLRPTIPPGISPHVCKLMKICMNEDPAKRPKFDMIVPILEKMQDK
Put plainly: Selectivity interaction (ActivX KiNativ screen (ex vivo kinase selectivity in human PBMCs)) EUB0001619a ILK. Particulars: PBMC, at 1 µM. In kind it is cell-based.

T1 sequence (Q96GD4 whole entry): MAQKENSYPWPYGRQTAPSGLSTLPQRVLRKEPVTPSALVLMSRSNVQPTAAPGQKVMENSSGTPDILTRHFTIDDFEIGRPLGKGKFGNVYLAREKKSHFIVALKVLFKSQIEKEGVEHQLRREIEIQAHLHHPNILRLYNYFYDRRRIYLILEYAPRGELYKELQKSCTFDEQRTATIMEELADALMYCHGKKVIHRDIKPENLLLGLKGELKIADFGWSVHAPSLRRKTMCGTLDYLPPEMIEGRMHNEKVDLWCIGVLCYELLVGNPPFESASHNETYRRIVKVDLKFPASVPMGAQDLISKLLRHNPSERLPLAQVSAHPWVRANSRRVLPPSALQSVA
Sequence of Phosphatidylinositol 4,5-bisphosphate 3-kinase catalytic subunit beta isoform (Homo sapiens) (P42338 whole entry, looked up, canonical isoform): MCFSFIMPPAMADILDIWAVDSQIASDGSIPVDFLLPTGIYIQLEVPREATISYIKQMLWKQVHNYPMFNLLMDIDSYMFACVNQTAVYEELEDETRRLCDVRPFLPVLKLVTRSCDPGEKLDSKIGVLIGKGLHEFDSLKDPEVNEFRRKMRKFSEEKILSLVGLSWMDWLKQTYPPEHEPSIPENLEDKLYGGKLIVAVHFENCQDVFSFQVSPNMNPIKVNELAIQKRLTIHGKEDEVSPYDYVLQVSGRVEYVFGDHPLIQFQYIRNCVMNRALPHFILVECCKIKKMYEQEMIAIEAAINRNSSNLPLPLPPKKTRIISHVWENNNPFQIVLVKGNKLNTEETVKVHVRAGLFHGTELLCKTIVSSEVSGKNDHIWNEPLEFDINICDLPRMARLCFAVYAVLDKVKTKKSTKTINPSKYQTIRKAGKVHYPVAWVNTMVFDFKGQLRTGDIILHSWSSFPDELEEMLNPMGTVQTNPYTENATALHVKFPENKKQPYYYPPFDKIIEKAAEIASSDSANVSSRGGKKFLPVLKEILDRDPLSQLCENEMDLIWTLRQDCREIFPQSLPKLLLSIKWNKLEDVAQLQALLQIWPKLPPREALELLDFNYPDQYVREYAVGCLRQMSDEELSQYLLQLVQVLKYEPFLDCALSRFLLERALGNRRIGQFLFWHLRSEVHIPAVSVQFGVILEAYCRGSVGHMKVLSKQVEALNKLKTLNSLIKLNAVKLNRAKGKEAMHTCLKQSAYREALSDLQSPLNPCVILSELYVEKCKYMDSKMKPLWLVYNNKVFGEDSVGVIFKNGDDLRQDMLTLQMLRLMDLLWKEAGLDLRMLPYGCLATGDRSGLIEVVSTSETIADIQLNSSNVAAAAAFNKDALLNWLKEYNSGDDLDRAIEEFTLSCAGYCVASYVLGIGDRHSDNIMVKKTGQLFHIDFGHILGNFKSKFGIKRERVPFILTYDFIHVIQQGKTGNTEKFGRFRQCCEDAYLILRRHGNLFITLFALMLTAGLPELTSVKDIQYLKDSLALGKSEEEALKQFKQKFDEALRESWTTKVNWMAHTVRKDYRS
Sequence of Serine/threonine-protein kinase PLK1 (P53350 whole entry): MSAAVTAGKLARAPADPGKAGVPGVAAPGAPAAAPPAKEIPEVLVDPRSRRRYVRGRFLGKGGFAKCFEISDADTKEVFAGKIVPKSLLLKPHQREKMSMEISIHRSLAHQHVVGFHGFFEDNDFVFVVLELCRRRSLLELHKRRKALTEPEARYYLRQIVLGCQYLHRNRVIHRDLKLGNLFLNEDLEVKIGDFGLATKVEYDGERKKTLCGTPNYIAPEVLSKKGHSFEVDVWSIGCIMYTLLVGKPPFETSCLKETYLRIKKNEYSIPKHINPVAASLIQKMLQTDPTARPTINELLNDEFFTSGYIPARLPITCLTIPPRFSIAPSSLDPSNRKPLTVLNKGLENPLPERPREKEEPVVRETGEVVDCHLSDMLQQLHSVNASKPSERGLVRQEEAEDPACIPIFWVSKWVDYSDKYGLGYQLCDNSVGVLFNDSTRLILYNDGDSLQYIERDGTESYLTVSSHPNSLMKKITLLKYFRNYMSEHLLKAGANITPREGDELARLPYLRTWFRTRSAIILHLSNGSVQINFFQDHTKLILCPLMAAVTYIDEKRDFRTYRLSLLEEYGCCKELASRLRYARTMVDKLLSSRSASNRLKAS

Molecule `CCn1c(-c2nc3cc(C(=O)N4CCCC(N)C4)ccc3n2C)cc2ccccc21` (stereo not given) displayed a pXC50 in experiment [1] below 4.5 M.

Consider `Cc1ccc(-c2ccc3c(ccc4sc5c(c43)NC[C@@H](C)NC5=O)n2)cn1`, for which the % of inhibition in [2] was -17%.

`CCN(CC)CCCCNc1ncc2cc(-c3cc(OC)cc(OC)c3)c(NC(=O)NC(C)(C)C)nc2n1` gave a % of control in [3] of 100%.

As for `Nc1cnc(N2CCc3cc(S(=O)(=O)Nc4c(F)cc(Cl)cc4F)cc(N4CCCC4=O)c32)nc1` [TP-020n], the % of inhibition in experiment [4] is 0.94%.

The molecule `CCC(=O)N1CCN(c2ccc(-n3c(=O)ccc4cnc5ccc(-c6cnc7ccccc7c6)cc5c43)cc2C(F)(F)F)CC1` registered a % of control in experiment [5] of 65%.

As to `C=CC(=O)Nc1cc(-n2c(=O)ccc3cnc4ccc(-c5ccc(NS(C)(=O)=O)cc5)cc4c32)ccc1C`, the % of control turned out to be 100% in [6] (at 1 µM) and 54% in [6] (at 10 µM).

Turning to `O=C(NOC[C@H](O)CO)c1ccc(F)c(F)c1Nc1ccc(I)cc1F`, in experiment [7], the % of control was found to be 94%.

Consider `CC[C@@H]1[C@H](F)C(=O)N[C@@H]1COc1nccc2cc(C(N)=O)c(OC)cc12` [ZIMLOVISERTIB], for which the % of inhibition in experiment [8] was -1%.

As to `N#Cc1cccc(-c2c[nH]c3ncnc(N4CCOCC4)c23)c1`, the % of inhibition in experiment [9] was -12%.

Source of the values: ChEMBL document CHEMBL5465560, “Selectivity Literature for EUbOPEN Chemogenomic Library” (2024).
